Columns and labels:
[1] = system: Pseudoperonospora cubensis; test: Test on protective effect against Pseudoperonospora cubensis (cucumber seedlings); assay type: in vivo; conditions: 500 ppm active ingredient sprayed on cucumber (Sagami-Hanziro) seedlings before inoculation, 6 days after; for pest or weed control at 500 ppm: Pseudoperonospora cubensis, 144 h, read-out: control level
Protocol: 4 cucumber seeds (variety: Sagami-Hanziro) were sown in each plastic cup having a diameter of 5.5 cm and allowed to grow for 7 days in a greenhouse. […] After air drying, the plants were inoculated by spraying with a conidia suspension of Pseudoperonospora cubensis. The inoculated plants were immediately put in a moist chamber at 20° C. (relative humidity of 100%) for 24 hours. Thereafter, the plants were transferred to a greenhouse. 6 days after, disease development indexes of cotyledons for total pots were examined according to the standard described below, a disease severity was determined using an expression shown below and a control level (%) was calculated using another expression shown below. The standard for disease development index is as follows: [table] Hereinbelow, an expression to calculate a disease severity (%) is shown. [formula] Hereinbelow, an expression to calculate a control level (%) is shown. [formula]

Septoria nodorum = test: Test on protective effect against Septoria nodorum (wheat); assay type: in vivo; conditions: 500 ppm active ingredient sprayed on wheat (Norin No. 61) at two-leaf stage before inoculation, 9 days after; for pest or weed control at 500 ppm: Parastagonospora nodorum, 216 h, read-out: control level
Protocol: 10 wheat seeds (variety: Norin No. 61) were sown in each plastic cup having a diameter of 5.5 cm and allowed to grow for 9 days in a greenhouse. […] After air drying, the plants were inoculated by spraying with a pycnidiospore suspension of Septoria nodorum. The inoculated plants were immediately put in a moist chamber at 25° C. (relative humidity of 100%) for 48 hours. Thereafter, the plants were transferred to a greenhouse. 9 days after, disease development indexes of first leaves for total pots were examined according to the standard in Test Example 3, a disease severity was determined using the expression in Test Example 3 and a control level (%) was calculated using the expression in Test Example 3.

Botrytis cinerea = test: Test on protective effect against Botrytis cinerea (cucumber seedlings); assay type: in vivo; conditions: 500 ppm active ingredient sprayed on cucumber (Sagami-Hanziro) seedlings before inoculation; 2 days after
Protocol: 4 cucumber seeds (variety: Sagami-Hanziro) were sown in each plastic cup having a diameter of 5.5 cm and allowed to grow for 7 days in a greenhouse. […] After air drying, a sterilized paper disc was immersed in a conidia suspension of Botrytis cinerea and laid on an upper side of a cucumber cotyledon for innoculation and thereafter cared in a moist chamber at 20° C.

Rhizoctonia solani = test: Test on protective effect against Rhizoctonia solani (rice pot test); assay type: in vivo; conditions: 500 ppm active ingredient sprayed on rice (Kinmaze) at 2.5 to 3-leaf stage before inoculation, 5 days after inoculation; for pest or weed control at 500 ppm: Rhizoctonia solani, 120 h, read-out: control level
Protocol: 15 rice seeds (variety: Kinmaze) were sown in each clay pot having a diameter of 7.5 cm and allowed to grow for 3 weeks in a greenhouse. […] After air drying, the plants were inoculated by uniformly covering the surface of the soil with Rhizoctonia solani cultured in a rice-husk bran medium and incubated in a moist chamber at 30° C. […] The standard for disease development index is as follows: [table] Hereinbelow, an expression to calculate a control level (%) is shown. [formula]

Pyricularia oryzae = test: whole plant or invertebrate; assay type: in vivo; conditions: for pest or weed control at 500 ppm: Pyricularia oryzae, 120 h, read-out: control level
Erysiphe graminis = test: Test on protective effect against Erysiphe graminis (wheat); assay type: in vivo; conditions: Blumeria graminis, 168 h; 500 ppm active ingredient sprayed on wheat (Norin No. 61) at 1.5 to 2-leaf stage before inoculation; 7 days after; read-out: control level
Protocol: 10 wheat seeds (variety: Norin No. 61) were sown in each plastic cup having a diameter of 5.5 cm and allowed to grow for 8 days in a greenhouse. […] After air drying, the plants were inoculated by equally sprinkling with conidia of Erysiphe graminis by using a midget duster or the like for innoculation and then incubated in a greenhouse until a development of disease. 7 days after, disease development indexes of first leaves for total pots were examined according to the standard in Test Example 3, a disease severity was determined using the expression in Test Example 3 and a control level (%) was calculated using the expression in Test Example 3.

SMILES	pest or weed control at 500 ppm (Septoria nodorum) [%]	pest or weed control at 500 ppm (Rhizoctonia solani) [%]	melting point [°C]	pest or weed control at 500 ppm (Erysiphe graminis) [%]	pest or weed control at 500 ppm (Pyricularia oryzae) [%]	pest or weed control at 500 ppm [1] [%]	other results
Clc1nc(-n2cccn2)nc(N2CCCC2)c1Cc1ccccc1 [Comparative Compound 1, reference compound]							control level [1]: did not exhibit a control effect; control level (Septoria nodorum): did not exhibit a control effect; control level (Botrytis cinerea): did not exhibit a control effect; control level (Rhizoctonia solani): did not exhibit a control effect; control level (Pyricularia oryzae; 500 ppm active ingredient sprayed on rice (Aichi Asahi) at four-leaf stage before inoculation, lesions counted 5 days after inoculation): did not exhibit a control effect
Cc1cc(C)n(-c2nc(C)c(C)c(NN)n2)n1 [Comparative Compound 2, reference compound]	75	50					control level (Botrytis cinerea): 25%
CCC(C)c1c(NC(C)C)nc(-n2cccn2)nc1C(F)(F)F (centres unmarked) [Compound No. 0240, 5-sec-butyl-N-(1-methylethyl)-2-(1H-pyrazol-1-yl)-6-trifluoromethylpyrimidine-4-amine]			85 to 87	100	100		
CCC(C)c1c(F)nc(-n2cccn2)nc1NCC(F)(F)F (centres unmarked) [Compound No. 0349, 5-sec-butyl-6-fluoro-2-(1H-pyrazol-1-yl)-N-(2,2,2-trifluoroethyl)pyrimidine-4-amine]	100	100	132 to 134	100	100	100	
CCC(C)c1c(Cl)nc(-n2cccn2)nc1NCC(F)(F)F (centres unmarked) [Compound No. 0350, 5-sec-butyl-6-chloro-2-(1H-pyrazol-1-yl)-N-(2,2,2-trifluoroethyl)pyrimidine-4-amine]	100	100	137 to 139	100	100	100	
CCC(C)c1c(Br)nc(-n2cccn2)nc1NCC(F)(F)F (centres unmarked) [Compound No. 0351, 6-bromo-5-sec-butyl-2-(1H-pyrazol-1-yl)-N-(2,2,2-trifluoroethyl)pyrimidine-4-amine]	100	100	136 to 139	100	100	100	
CCC(C)c1c(O)nc(-n2cccn2)nc1NCC(F)(F)F (centres unmarked) [Compound No. 0353, 5-sec-butyl-2-(1H-pyrazol-1-yl)-6-(2,2,2-trifluoroethylamino)pyrimidin-4-ol]			141 to 143				
CCC(C)c1c(NCC(F)(F)F)nc(-n2cccn2)nc1OC(F)F (centres unmarked) [Compound No. 0358, 5-sec-butyl-6-difluoromethoxy-2-(1H-pyrazol-1-yl)-N-(2,2,2-trifluoroethyl)pyrimidine-4-amine]			94 to 95	100	100	100	
CCC(C)c1c(NCC(F)(F)F)nc(-n2cccn2)nc1SC (centres unmarked) [Compound No. 0361, 5-sec-butyl-6-methylthio-2-(1H-pyrazol-1-yl)-N-(2,2,2-trifluoroethyl)pyrimidine-4-amine]		100		100	100	100	
CCC(C)c1c(NCC(F)(F)F)nc(-n2cccn2)nc1S(C)(=O)=O (centres unmarked) [Compound No. 0363, 5-sec-butyl-6-methylsulfonyl-2-(1H-pyrazol-1-yl)-N-(2,2,2-trifluoroethyl)pyrimidine-4-amine]			52 to 55				
CCC(C)c1c(NCC(F)(F)F)nc(-n2cccn2)nc1N(CC)CC (centres unmarked) [Compound No. 0371, 5-sec-butyl-N^4, N^4-diethyl-2-(1H-pyrazol-1-yl)-N^6-(2,2,2-trifluoroethyl)pyrimidine-4,6-diamine]				100		100	
CCc1nc(-n2cccn2)nc(NCC(F)(F)F)c1C(C)CC (centres unmarked) [Compound No. 0385, 5-sec-butyl-6-ethyl-2-(1H-pyrazol-1-yl)-N-(2,2,2-trifluoroethyl)pyrimidine-4-amine]	100		89 to 90	100	100	100	
CCC(C)c1c(NCC(F)(F)F)nc(-n2cccn2)nc1C1CC1 (centres unmarked) [Compound No. 0387, 5-sec-butyl-6-cyclopropyl-2-(1H-pyrazol-1-yl)-N-(2,2,2-trifluoroethyl)pyrimidine-4-amine]		100	84 to 85	100	100	100	
CCC(C)c1c(Cl)nc(-n2cc(Cl)cn2)nc1NCC(F)(F)F (centres unmarked) [Compound No. 0434, 5-sec-butyl-6-chloro-2-(4-chloro-1H-pyrazol-1-yl)-N-(2,2,2-trifluoroethyl)pyrimidine-4-amine]		100	173 to 174	100	100		
CCOC(=O)c1cnn(-c2nc(Cl)c(C(C)CC)c(NCC(F)(F)F)n2)c1N (centres unmarked) [Compound No. 0601, ethyl 5-amino-1-[5-sec-butyl-4-chloro-6-(2,2,2-trifluoroethylamino)pyrimidin-2-yl]-1H-pyrazol-4-carboxylate]			173 to 174				
CCC(C)c1cnc(-n2cccn2)nc1N1CCC(C)CC1 (centres unmarked) [Compound No. 1190, 5-sec-butyl-4-(4-methylpiperidin-1-yl)-2-(1H-pyrazol-1-yl)pyrimidine]	100	100		100		100	
CCC(C)c1c(Cl)nc(-n2cccn2)nc1N1CCC(C)CC1 (centres unmarked) [Compound No. 1192, 5-sec-butyl-4-chloro-6-(4-methylpiperidin-1-yl)-2-(1H-pyrazol-1-yl)pyrimidine]		100		100			
CCC(C)c1c(SC)nc(-n2cccn2)nc1N1CCC(C)CC1 (centres unmarked) [Compound No. 1204, 5-sec-butyl-6-(4-methylpiperidin-1-yl)-4-methylthio-2-(1H-pyrazol-1-yl)pyrimidine]		100	69 to 71	100			
CCC(C)c1c(C#N)nc(-n2cccn2)nc1N1CCC(C)CC1 (centres unmarked) [Compound No. 1215, 5-sec-butyl-6-(4-methylpiperidin-1-yl)-2-(1H-pyrazol-1-yl)pyrimidine-4-carbonitrile]		100		100		100	
CCC(C)c1c(C)nc(-n2cccn2)nc1N1CCC(C)CC1 (centres unmarked) [Compound No. 1225, 5-sec-butyl-4-methyl-6-(4-methylpiperidin-1-yl)-2-(1H-pyrazol-1-yl)pyrimidine]	100			100		100	

— patent US20090042917A1, “Aminopyrimidine Derivative and Plant Disease Control Agent for Agricultural or Horticultural Use” (KUMIAI CHEMICAL INDUSTRY CO., LTD., priority 2006, published 2009)
